Experimental data reported in patent US9695155B2, “Herbicidal substituted pyrimidinyloxy benzene compounds” (E. I. DU PONT DE NEMOURS AND COMPANY, priority 2013, dated 2017).

Assays:
barnyardgrass [1] = assay: Test A preemergence; type: in vivo, Echinochloa crus-galli; conditions: for Barnyardgrass plant response rating (0 to 100 scale, 0 is no effect, 100 is complete control): 125 g ai/ha; for Barnyardgrass plant response rating: 500 g ai/ha, 0 to 100 scale where 0 is no effect and 100 is complete control
Outline: (§1)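 Scoring: eye-based comparison with untreated controls, 0 for no effect through 100 for complete control, at about day 10. Treatments: directed soil spray preemergence; foliar spray postemergence on 2–10 cm plants at the one- to two-leaf stage. Medium: loam soil with sand.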

large (Lg) crabgrass [2] = assay: Test A preemergence; type: in vivo, Digitaria sanguinalis; conditions: for Crabgrass, Large plant response rating (0 to 100 scale): 125 g ai/ha; for Crabgrass, Large plant response rating: 500 g ai/ha, 0 to 100 scale where 0 is no effect and 100 is complete control
Outline: as §1

giant foxtail [3] = assay: Test A preemergence; type: in vivo, Setaria faberii; conditions: for Foxtail, Giant plant response rating (0 to 100 scale): 125 g ai/ha; for Foxtail, Giant plant response rating: 500 g ai/ha, 0 to 100 scale where 0 is no effect and 100 is complete control
Outline: as §1

morningglory [4] = assay: Test A preemergence; type: in vivo, Ipomoea spp.; conditions: for Morningglory plant response rating (0 to 100 scale): 125 g ai/ha; for Morningglory plant response rating: 500 g ai/ha, 0 to 100 scale where 0 is no effect and 100 is complete control
Outline: as §1

pigweed [5] = assay: Test A preemergence; type: in vivo, Amaranthus retroflexus; conditions: for Pigweed plant response rating (0 to 100 scale): 125 g ai/ha; for Pigweed plant response rating: 500 g ai/ha, 0 to 100 scale where 0 is no effect and 100 is complete control
Outline: as §1

velvetleaf [6] = assay: Test A preemergence; type: in vivo, Abutilon theophrasti; conditions: for Velvetleaf plant response rating (0 to 100 scale): 125 g ai/ha; for Velvetleaf plant response rating: 500 g ai/ha, 0 to 100 scale where 0 is no effect and 100 is complete control
Outline: as §1

wheat [7] = assay: Test A preemergence; type: in vivo, Triticum aestivum; conditions: for Wheat plant response rating (0 to 100 scale): 125 g ai/ha; for Wheat plant response rating: 500 g ai/ha, 0 to 100 scale where 0 is no effect and 100 is complete control
Outline: as §1

corn [8] = assay: Test A preemergence; type: in vivo, Zea mays; conditions: for Corn plant response rating (0 to 100 scale): 125 g ai/ha; for Corn plant response rating: 500 g ai/ha, 0 to 100 scale where 0 is no effect and 100 is complete control
Outline: as §1

barnyardgrass [9] = assay: Test A postemergence; type: in vivo, Echinochloa crus-galli; conditions: 0 to 100 scale where 0 is no effect and 100 is complete control; for Barnyardgrass plant response rating: 125 g ai/ha; for Plant response rating, Barnyardgrass: 500 g ai/ha
Outline: as §1

large (Lg) crabgrass [10] = assay: Test A postemergence; type: in vivo, Digitaria sanguinalis; conditions: 0 to 100 scale where 0 is no effect and 100 is complete control; for Crabgrass, Large plant response rating: 125 g ai/ha; for Plant response rating, Crabgrass, Large: 500 g ai/ha
Outline: as §1

giant foxtail [11] = assay: Test A postemergence; type: in vivo, Setaria faberii; conditions: 0 to 100 scale where 0 is no effect and 100 is complete control; for Foxtail, Giant plant response rating: 125 g ai/ha; for Plant response rating, Foxtail, Giant: 500 g ai/ha
Outline: as §1

morningglory [12] = assay: Test A postemergence; type: in vivo, Ipomoea spp.; conditions: 0 to 100 scale where 0 is no effect and 100 is complete control; for Morningglory plant response rating: 125 g ai/ha; for Plant response rating, Morningglory: 500 g ai/ha
Outline: as §1

pigweed [13] = assay: Test A postemergence; type: in vivo, Amaranthus retroflexus; conditions: 0 to 100 scale where 0 is no effect and 100 is complete control; for Pigweed plant response rating: 125 g ai/ha; for Plant response rating, Pigweed: 500 g ai/ha
Outline: as §1

velvetleaf [14] = assay: Test A postemergence; type: in vivo, Abutilon theophrasti; conditions: 0 to 100 scale where 0 is no effect and 100 is complete control; for Velvetleaf plant response rating: 125 g ai/ha; for Plant response rating, Velvetleaf: 500 g ai/ha
Outline: as §1

wheat [15] = assay: Test A postemergence; type: in vivo, Triticum aestivum; conditions: 0 to 100 scale where 0 is no effect and 100 is complete control; for Wheat plant response rating: 125 g ai/ha; for Plant response rating, Wheat: 500 g ai/ha
Outline: as §1

corn [16] = assay: Test A postemergence; type: in vivo, Zea mays; conditions: 0 to 100 scale where 0 is no effect and 100 is complete control; for Corn plant response rating: 125 g ai/ha; for Plant response rating, Corn: 500 g ai/ha
Outline: as §1

rice = assay: Test B flooded paddy test; type: in vivo, Oryza sativa; conditions: Flood, 250 g ai/ha; 0 to 100 scale where 0 is no effect and 100 is complete control
Outline: (§2)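 Plants at 2-leaf stage; pots flooded to 3 cm above soil and compound applied directly into paddy water, depth held throughout. After 13 to 15 days in greenhouse, visual rating versus controls on 0 (no effect) to 100 (complete control) scale.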

sedge, umbrella = assay: Test B flooded paddy test; type: in vivo, Cyperus difformis; conditions: Flood, 250 g ai/ha; 0 to 100 scale where 0 is no effect and 100 is complete control
Outline: as §2

Heteranthera limosa = assay: Test B flooded paddy test; type: in vivo; conditions: Flood, 250 g ai/ha; 0 to 100 scale where 0 is no effect and 100 is complete control
Outline: as §2

barnyardgrass [17] = assay: Test B flooded paddy test; type: in vivo, Echinochloa crus-galli; conditions: Flood, 250 g ai/ha; 0 to 100 scale where 0 is no effect and 100 is complete control
Outline: as §2

Structure (SMILES)	Barnyardgrass plant response rating (0 to 100 scale, 0 is no effect, 100 is complete control) (barnyardgrass [1])	Barnyardgrass plant response rating (barnyardgrass [1])	Crabgrass, Large plant response rating (0 to 100 scale) (large (Lg) crabgrass [2])	Crabgrass, Large plant response rating (large (Lg) crabgrass [2])	Foxtail, Giant plant response rating (0 to 100 scale) (giant foxtail [3])	Foxtail, Giant plant response rating (giant foxtail [3])	Morningglory plant response rating (0 to 100 scale) (morningglory [4])	Morningglory plant response rating (morningglory [4])	Pigweed plant response rating (0 to 100 scale) (pigweed [5])	Pigweed plant response rating (pigweed [5])	Velvetleaf plant response rating (0 to 100 scale) (velvetleaf [6])	Velvetleaf plant response rating (velvetleaf [6])	Wheat plant response rating (0 to 100 scale) (wheat [7])	Wheat plant response rating (wheat [7])	Corn plant response rating (0 to 100 scale) (corn [8])	Corn plant response rating (corn [8])	Barnyardgrass plant response rating (barnyardgrass [9])	Plant response rating, Barnyardgrass (barnyardgrass [9])	Crabgrass, Large plant response rating (large (Lg) crabgrass [10])	Plant response rating, Crabgrass, Large (large (Lg) crabgrass [10])	further results
C=C(C)c1cccc(Oc2ncc(Cl)cn2)c1-n1cc(Br)cn1 [Compound 198]	50	80	80	100	70	100	0	10	100	100	40	80	0	0	0	0	30	50	60	90	Foxtail, Giant plant response rating (giant foxtail [11]): 30; Plant response rating, Foxtail, Giant (giant foxtail [11]): 80; Morningglory plant response rating (morningglory [12]): 60; Plant response rating, Morningglory (morningglory [12]): 70; Pigweed plant response rating (pigweed [13]): 90; Plant response rating, Pigweed (pigweed [13]): 100; Velvetleaf plant response rating (velvetleaf [14]): 90; Plant response rating, Velvetleaf (velvetleaf [14]): 100; Wheat plant response rating (wheat [15]): 0; Plant response rating, Wheat (wheat [15]): 10; Corn plant response rating (corn [16]): 20; Plant response rating, Corn (corn [16]): 20; Plant response rating, Rice (rice): 0; Plant response rating, Sedge, Umbrella (sedge, umbrella): 20; Plant response rating, Ducksalad (Heteranthera limosa): 25; Plant response rating, Barnyardgrass (barnyardgrass [17]): 0
COc1ccc(Br)c(-n2cc(Br)cn2)c1Oc1ncc(Cl)cn1 [Compound 201]	0	0	20	40	20	50	0	0	0	0	0	0	0	0	0	0	0	10	0	30	Foxtail, Giant plant response rating (giant foxtail [11]): 0; Plant response rating, Foxtail, Giant (giant foxtail [11]): 40; Morningglory plant response rating (morningglory [12]): 20; Plant response rating, Morningglory (morningglory [12]): 20; Pigweed plant response rating (pigweed [13]): 20; Plant response rating, Pigweed (pigweed [13]): 40; Velvetleaf plant response rating (velvetleaf [14]): 30; Plant response rating, Velvetleaf (velvetleaf [14]): 70; Wheat plant response rating (wheat [15]): 0; Plant response rating, Wheat (wheat [15]): 0; Corn plant response rating (corn [16]): 0; Plant response rating, Corn (corn [16]): 0; Plant response rating, Rice (rice): 0; Plant response rating, Sedge, Umbrella (sedge, umbrella): 20; Plant response rating, Ducksalad (Heteranthera limosa): 40; Plant response rating, Barnyardgrass (barnyardgrass [17]): 0
Cc1ccc(Oc2ncc(Cl)cn2)c(-n2cc(Br)cn2)c1Br [Compound 202]	0	10	40	70	10	70	0	0	0	0	0	0	0	0	0	0	0	0	10	50	Foxtail, Giant plant response rating (giant foxtail [11]): 10; Plant response rating, Foxtail, Giant (giant foxtail [11]): 30; Morningglory plant response rating (morningglory [12]): 0; Plant response rating, Morningglory (morningglory [12]): 20; Pigweed plant response rating (pigweed [13]): 30; Plant response rating, Pigweed (pigweed [13]): 50; Velvetleaf plant response rating (velvetleaf [14]): 50; Plant response rating, Velvetleaf (velvetleaf [14]): 70; Wheat plant response rating (wheat [15]): 0; Plant response rating, Wheat (wheat [15]): 0; Corn plant response rating (corn [16]): 0; Plant response rating, Corn (corn [16]): 0; Plant response rating, Rice (rice): 0; Plant response rating, Sedge, Umbrella (sedge, umbrella): 10; Plant response rating, Ducksalad (Heteranthera limosa): 30; Plant response rating, Barnyardgrass (barnyardgrass [17]): 0
O=Cc1cccc(Oc2ncc(Cl)cn2)c1-n1cc(Cl)cn1 [Compound 205]	0	0	0	0	0	0	0	0	0	10	0	10	0	0	0	0	0	0	0	0	Foxtail, Giant plant response rating (giant foxtail [11]): 0; Plant response rating, Foxtail, Giant (giant foxtail [11]): 0; Morningglory plant response rating (morningglory [12]): 0; Plant response rating, Morningglory (morningglory [12]): 0; Pigweed plant response rating (pigweed [13]): 0; Plant response rating, Pigweed (pigweed [13]): 0; Velvetleaf plant response rating (velvetleaf [14]): 10; Plant response rating, Velvetleaf (velvetleaf [14]): 20; Wheat plant response rating (wheat [15]): 0; Plant response rating, Wheat (wheat [15]): 0; Corn plant response rating (corn [16]): 0; Plant response rating, Corn (corn [16]): 0; Plant response rating, Rice (rice): 0; Plant response rating, Sedge, Umbrella (sedge, umbrella): 0; Plant response rating, Ducksalad (Heteranthera limosa): 0; Plant response rating, Barnyardgrass (barnyardgrass [17]): 0
N#Cc1ccc(Oc2ncc(Cl)cn2)c(-n2cc(Br)cn2)c1 [Compound 213]	0	10	10	100	20	100	0	10	50	100	0	0	0	0	0	0	0	10	20	70	Foxtail, Giant plant response rating (giant foxtail [11]): 10; Plant response rating, Foxtail, Giant (giant foxtail [11]): 30; Morningglory plant response rating (morningglory [12]): 20; Plant response rating, Morningglory (morningglory [12]): 30; Pigweed plant response rating (pigweed [13]): 100; Plant response rating, Pigweed (pigweed [13]): 100; Velvetleaf plant response rating (velvetleaf [14]): 10; Plant response rating, Velvetleaf (velvetleaf [14]): 20; Wheat plant response rating (wheat [15]): 0; Plant response rating, Wheat (wheat [15]): 0; Corn plant response rating (corn [16]): 0; Plant response rating, Corn (corn [16]): 30; Plant response rating, Rice (rice): 0; Plant response rating, Sedge, Umbrella (sedge, umbrella): 70; Plant response rating, Ducksalad (Heteranthera limosa): 0; Plant response rating, Barnyardgrass (barnyardgrass [17]): 0
